The values below come from ChEMBL document CHEMBL5705883, “Discovery of a selective inhibitor of oncogenic B-Raf kinase with potent antimelanoma activity” (Proc Natl Acad Sci U S A, 2008).

Active and inactive are the calls of the source. The rule behind the calls is not given here.

For one series, the system named is COLO-829. Put plainly: cells. The conditions noted are these: Homo sapiens, COLO-829, 72 h.
The next series in a line: animal or person. To be noted: Mus musculus, COLO 205, po, 336 h, read-out: INH.
For a further series, the system named is NCI-H460. As to the kind of experiment: cells. To be noted: Homo sapiens, NCI-H460, 72 h.
The species named for the next series is Mus musculus. To be noted: SCID, dose 100.0 mg/kg, route po, time 15.0 day.
The next series relates to COLO 205. As to the kind of experiment: cells. The conditions noted are these: Homo sapiens, COLO 205, 72 h.
The subject of a further series is SK-MEL-2. Put plainly: cells. To be noted: Homo sapiens, SK-MEL-2, 72 h.
Series [1] in a line: cells. The conditions noted are these: Homo sapiens, SW-620, 1 h.
Series [2] is described as follows: cells. To be noted: Homo sapiens, COLO 205, 1 h.
The next series can be described thus: in vivo. To be noted: nude, mouse, plasma, po, 1000 mg/kg.
Another series has as its system Calu-6. As to the kind of experiment: cells. To be noted: Homo sapiens, Calu-6, 72 h.
Series [3] can be described thus: cells. The conditions noted are these: HT716, 72 h.
A short description of series [4]: cells. The conditions noted are these: Homo sapiens, COLO-829, 1 h.
The test system of the next series is WM 266-4. As to the kind of experiment: cells. The conditions noted are these: Homo sapiens, WM 266-4, 72 h.
Series [5] in a line: cells. To be noted: Homo sapiens, A-375, 1 h.
In a further series the test system is HCT-116. Put plainly: cells. To be noted: Homo sapiens, HCT-116, 72 h.
The subject of a further series is LoVo. As to the kind of experiment: cells. The conditions noted are these: Homo sapiens, 72 h.
A further series concerns SW-620. Put plainly: cells. The conditions noted are these: Homo sapiens, SW-620, 72 h.
For the next series, the system named is A-375. Put plainly: cells. The conditions noted are these: Homo sapiens, A-375, 72 h.
The subject of a further series is SK-MEL3. Put plainly: cells. To be noted: Homo sapiens, SK-MEL3, 72 h.
In the next series the test system is NCI-H1299. As to the kind of experiment: cells. The conditions noted are these: Homo sapiens, NCI-H1299, 72 h.

Consider `CCCS(=O)(=O)Nc1ccc(F)c(C(=O)c2c[nH]c3ncc(Cl)cc23)c1F` [PLX-4720], for which the GI50 is 1.7 µM in the series with COLO-829; 24 µM with NCI-H460; 0.31 µM in the series on COLO 205; 27 µM with SK-MEL-2; 26 µM in the series with Calu-6; 10 µM in the series “cells [3]”. Further, the GI50 with WM 266-4 was found to be 1.5 µM; in the series on HCT-116 it was 27 µM; in the series on LoVo, 29 µM; in the series with SW-620, 13 µM; in the series on A-375, 0.5 µM; with SK-MEL3 it was 27 µM. In the series on NCI-H1299, this molecule gave a GI50 of 41 µM. The inhibition in vivo at 20 mg/kg in the series “animal or person” came to 43%. Further, the inhibition entry in the series listed under Mus musculus was “Active”. Also, the IC50 is over 40 µM in the series “cells [1]”, 0.014 µM in “cells [2]”, 0.044 µM in the series “cells [4]” and 0.046 µM in the series “cells [5]”. This molecule showed a concentration at 336 h in “in vivo” of at most 600 µM.

As usually defined, the GI50 is the concentration giving 50% growth inhibition. The term IC50 denotes the concentration that inhibits the measured activity by half. Read a low IC50 as greater potency.
